The source of these data is paper PMC9516332 (Frontiers in Oncology, 2022).

Common to all, as to test: Kinase panel profiling at 1 µmol/L (MSA or IMAP), percentage inhibition
Common to all, as to format: biochemical

Assay [1] deals with panel of 255 wild-type kinases (Homo sapiens, UniProt Q9Y463). As to conditions: read-out: %-inhibition at 1 µmol/L, DYRK1B.
Assay [2] deals with panel of 255 wild-type kinases (Homo sapiens, UniProt Q86V86). As to conditions: read-out: %-inhibition at 1 µmol/L, PIM3.
Assay [3] has as its target panel of 255 wild-type kinases (Homo sapiens, UniProt P54756). As to conditions: read-out: %-inhibition at 1 µmol/L, EPHA5.
The target in assay [4] is T1, panel of 255 wild-type kinases (Homo sapiens, UniProt P54762).
T1 sequence (P54762 18-984): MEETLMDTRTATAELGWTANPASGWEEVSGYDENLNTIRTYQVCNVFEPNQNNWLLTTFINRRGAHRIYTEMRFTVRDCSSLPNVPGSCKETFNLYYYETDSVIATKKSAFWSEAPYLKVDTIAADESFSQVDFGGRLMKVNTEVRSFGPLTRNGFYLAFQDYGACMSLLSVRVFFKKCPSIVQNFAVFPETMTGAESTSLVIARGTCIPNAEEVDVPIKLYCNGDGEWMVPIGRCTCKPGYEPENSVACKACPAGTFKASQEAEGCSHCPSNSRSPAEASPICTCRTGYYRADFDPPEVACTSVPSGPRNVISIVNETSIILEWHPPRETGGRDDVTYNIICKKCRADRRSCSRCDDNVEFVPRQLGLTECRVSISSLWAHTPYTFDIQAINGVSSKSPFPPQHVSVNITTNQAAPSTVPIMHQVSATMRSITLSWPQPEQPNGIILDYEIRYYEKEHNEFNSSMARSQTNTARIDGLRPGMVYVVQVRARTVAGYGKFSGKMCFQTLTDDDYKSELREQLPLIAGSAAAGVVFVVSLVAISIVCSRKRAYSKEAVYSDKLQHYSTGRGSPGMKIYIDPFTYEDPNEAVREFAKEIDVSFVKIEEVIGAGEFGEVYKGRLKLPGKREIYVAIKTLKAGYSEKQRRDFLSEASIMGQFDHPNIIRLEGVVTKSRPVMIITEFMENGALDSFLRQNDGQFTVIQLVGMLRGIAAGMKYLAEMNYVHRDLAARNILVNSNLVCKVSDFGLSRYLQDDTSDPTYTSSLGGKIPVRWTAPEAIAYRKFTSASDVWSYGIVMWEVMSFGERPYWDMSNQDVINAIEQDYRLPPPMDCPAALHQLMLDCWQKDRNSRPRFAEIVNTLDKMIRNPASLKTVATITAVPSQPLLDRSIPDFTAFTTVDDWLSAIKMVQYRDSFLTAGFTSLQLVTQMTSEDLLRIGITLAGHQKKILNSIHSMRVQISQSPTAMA
The following applies: read-out: %-inhibition at 1 µmol/L, EPHB1.

In assay [5] the target is T2, panel of 255 wild-type kinases (Homo sapiens, UniProt Q8NE63).
T2 sequence (Q8NE63 1-616): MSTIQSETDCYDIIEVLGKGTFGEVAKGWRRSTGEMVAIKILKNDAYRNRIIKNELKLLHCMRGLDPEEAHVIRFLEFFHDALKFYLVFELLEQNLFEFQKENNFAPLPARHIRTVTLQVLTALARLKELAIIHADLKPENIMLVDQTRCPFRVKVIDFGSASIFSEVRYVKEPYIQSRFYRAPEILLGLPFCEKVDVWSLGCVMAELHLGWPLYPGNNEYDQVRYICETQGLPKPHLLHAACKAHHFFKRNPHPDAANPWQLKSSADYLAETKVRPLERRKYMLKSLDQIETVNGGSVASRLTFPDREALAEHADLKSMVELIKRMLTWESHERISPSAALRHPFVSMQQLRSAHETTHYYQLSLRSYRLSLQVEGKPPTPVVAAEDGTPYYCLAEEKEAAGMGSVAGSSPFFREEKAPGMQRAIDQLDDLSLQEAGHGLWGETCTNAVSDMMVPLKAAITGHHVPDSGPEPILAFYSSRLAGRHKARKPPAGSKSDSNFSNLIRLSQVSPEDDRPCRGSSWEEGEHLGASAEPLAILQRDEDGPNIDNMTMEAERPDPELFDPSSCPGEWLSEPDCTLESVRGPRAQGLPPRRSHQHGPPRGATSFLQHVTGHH
The following applies: read-out: %-inhibition at 1 µmol/L, HIPK4.

The target of assay [6] is T3, panel of 255 wild-type kinases (Homo sapiens, UniProt Q16566).
T3 sequence (Q16566 1-473): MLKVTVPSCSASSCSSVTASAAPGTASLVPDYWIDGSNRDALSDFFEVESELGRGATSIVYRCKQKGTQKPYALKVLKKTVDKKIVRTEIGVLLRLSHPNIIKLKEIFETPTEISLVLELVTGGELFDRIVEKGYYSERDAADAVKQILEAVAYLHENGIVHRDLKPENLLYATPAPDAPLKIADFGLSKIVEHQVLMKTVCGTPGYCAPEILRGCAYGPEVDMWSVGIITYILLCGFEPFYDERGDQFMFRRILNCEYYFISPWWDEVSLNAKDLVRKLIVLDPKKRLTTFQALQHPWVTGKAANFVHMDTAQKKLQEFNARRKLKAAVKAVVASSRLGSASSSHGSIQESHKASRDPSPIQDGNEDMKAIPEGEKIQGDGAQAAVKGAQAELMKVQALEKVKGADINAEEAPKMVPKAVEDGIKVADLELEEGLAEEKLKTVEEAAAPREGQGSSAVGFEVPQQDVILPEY
The following applies: read-out: %-inhibition CaMK4.

Assay [7] addresses panel of 255 wild-type kinases (Homo sapiens, UniProt P51617). The following applies: read-out: %-inhibition at 1 µmol/L, IRAK1.
The target of assay [8] is panel of 255 wild-type kinases (Homo sapiens, UniProt Q05655). As to conditions: read-out: %-inhibition at 1 µmol/L, PKCδ.
Assay [9] addresses panel of 255 wild-type kinases (Homo sapiens, UniProt Q9NYA1). As to conditions: read-out: %-inhibition at 1 µmol/L, SPHK1.
Assay [10] deals with panel of 255 wild-type kinases (Homo sapiens, UniProt Q00535). As to conditions: read-out: %-inhibition CDK5/p25.
Where [11] appears, read: kinase DYRK1B, 1 µmol/L single concentration.
Where [12] appears, read: kinase PIM3, 1 µmol/L single concentration.
Setting [13] is: kinase EPHA5, 1 µmol/L single concentration.
Setting [14] is: kinase EPHB1, 1 µmol/L single concentration.
Setting [15] is: kinase HIPK4, 1 µmol/L single concentration.
[16] abbreviates: CaMK4 kinase assay, 1 µmol/L single concentration.
[17] abbreviates: kinase IRAK1, 1 µmol/L single concentration.
[18] abbreviates: kinase PKCδ, 1 µmol/L single concentration.
[19] abbreviates: kinase SPHK1, 1 µmol/L single concentration.
The mark [20] stands for this setting: CDK5/p25 kinase assay, 1 µmol/L single concentration.

Read-outs that look alike come from different tables or passages of the source.

Take `Cc1nc(NC(=O)N2CCC[C@H]2C(N)=O)sc1-c1ccnc(C(C)(C)C(F)(F)F)c1` [alpelisib]: the inhibition at 1 µM in assay [1] (setting [11]) was 8%; in assay [2] (setting [12]), -13%; in assay [3] (setting [13]), 0.272%; in [4] (setting [14]), 8%; in assay [5] (setting [15]), 64%; in assay [6] (setting [16]), -7%. The inhibition at 1 µM was -5.3% in assay [7] (setting [17]), -7.56% in assay [8] (setting [18]), -5.44% in assay [9] (setting [19]) and -14% in [10] (setting [20]).

For `Cn1cc(-c2cc3c(N4CCN(c5ncc([C@@](C)(N)c6ccc(F)cc6)cn5)CC4)ncnn3c2)cn1` [avapritinib], the inhibition at 1 µM in assay [1] (setting [11]) was 47%; in assay [2] (setting [12]), 9%; in assay [3] (setting [13]), 41%; in [4] (setting [14]), 65%; in assay [5] (setting [15]) it was 46%; in assay [6] (setting [16]) it was -0.588%. Further, the inhibition at 1 µM in assay [7] (setting [17]) is 8%; in [8] (setting [18]), 5%; in assay [9] (setting [19]), -1.72%; in assay [10] (setting [20]), 11%.

For the molecule `Cn1cnc2c(F)c(Nc3ccc(Br)cc3F)c(C(=O)NOCCO)cc21` [binimetinib], the inhibition at 1 µM is -7% in assay [1] (setting [11]); 5% in [2] (setting [12]); -2.36% in assay [3] (setting [13]); 2% in [4] (setting [14]); -3.77% in [5] (setting [15]); 2.67% in [6] (setting [16]). Also, the inhibition at 1 µM in assay [7] (setting [17]) is 2.19%; in [8] (setting [18]), -9%; in [9] (setting [19]), -26%; in [10] (setting [20]) it was -21%.

Turning to `CNC(=O)c1ccc(-c2cnc3ncc(Cc4ccc5ncccc5c4)n3n2)cc1F` [capmatinib], the inhibition at 1 µM in [1] is 1.71%; in assay [2], 1.78%; in assay [3], -13%; in assay [4], -1.63%; in assay [5], 3.67%; in [6], -2.8%. Further, the inhibition at 1 µM is 35% in assay [7], -10% in [8], -5.27% in assay [9] and -20% in [10].

Regarding `COc1cc2ncnc(Nc3ccc(F)c(Cl)c3)c2cc1NC(=O)/C=C/CN1CCCCC1` [dacomitinib], the inhibition at 1 µM in assay [1] (setting [11]) is 7%; in assay [2] (setting [12]) it was 23%; in assay [3] (setting [13]), 34%; in assay [4] (setting [14]) it was 45%; in assay [5] (setting [15]), 85%; in assay [6] (setting [16]) it was 2.44%. The inhibition at 1 µM in [7] (setting [17]) was 76%; in [8] (setting [18]), 9%; in [9] (setting [19]), -15%; in [10] (setting [20]) it was -29%.

For `C[C@H](Nc1ncnc2nc[nH]c12)c1cc2cccc(Cl)c2c(=O)n1-c1ccccc1` [duvelisib], the inhibition at 1 µM was -0.692% in assay [1] (setting [11]); -7% in assay [2] (setting [12]); 0.787% in assay [3] (setting [13]); 10% in assay [4] (setting [14]); 5% in assay [5] (setting [15]); -3% in [6] (setting [16]). Also, the inhibition at 1 µM in assay [7] (setting [17]) was -8%; in assay [8] (setting [18]) it was 1.67%; in [9] (setting [19]) it was -3.25%; in [10] (setting [20]) it was -11%.

As for `COC(=O)N[C@@H](C)CNc1nccc(-c2cn(C(C)C)nc2-c2cc(Cl)cc(NS(C)(=O)=O)c2F)n1` [encorafenib], the inhibition at 1 µM in [1] (setting [11]) was -3.42%; in assay [2] (setting [12]), 10%; in [3] (setting [13]), -2.32%; in assay [4] (setting [14]) it was 3%; in assay [5] (setting [15]) it was 59%; in assay [6] (setting [16]) it was 4.35%. For the same molecule, the inhibition at 1 µM in assay [7] (setting [17]) was 21%; in assay [8] (setting [18]), -2.67%; in assay [9] (setting [19]), -5.65%; in [10] (setting [20]) it was -17%.

Turning to `CN1CCN(c2ccc(C(=O)Nc3n[nH]c4ccc(Cc5cc(F)cc(F)c5)cc34)c(NC3CCOCC3)c2)CC1` [entrectinib], the inhibition at 1 µM is 6% in assay [1] (setting [11]); -10% in assay [2] (setting [12]); 53% in assay [3] (setting [13]); 62% in [4] (setting [14]); 14% in [5] (setting [15]); 1.07% in assay [6] (setting [16]). In addition, the values for the inhibition at 1 µM in [7] (setting [17]), in [8] (setting [18]) and in assay [9] (setting [19]) were 16%, 8% and -4%, respectively.

Turning to `CCN1CCN(c2ccc(Nc3cc(N(C)C(=O)Nc4c(Cl)c(OC)cc(OC)c4Cl)ncn3)cc2)CC1` [infigratinib], the inhibition at 1 µM was -2.3% in assay [1] (setting [11]); 0.254% in assay [2] (setting [12]); -8% in assay [3] (setting [13]); 2.8% in [4] (setting [14]); 6% in assay [5] (setting [15]); 2.47% in [6] (setting [16]). Also, the values for the inhibition at 1 µM in assay [8] (setting [18]), in assay [9] (setting [19]) and in assay [10] (setting [20]) were -3%, -14% and -17%, respectively.
